The target of series [1] is human Janus kinase 2 (JAK2), recombinant catalytic domain (Homo sapiens (Human), UniProt O60674). The series is described as follows: LanthaScreen TR-FRET enzymatic assay, JAK2. The series is classed as biochemical. The essentials:
(§1)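 Insect-cell-expressed catalytic domains (JAK1 aa 866-1154, 440 ng/mL; JAK2 aa 808-1132, 11 ng/mL; JAK3 aa 781-1124, 400 ng/mL; TYK2 aa 833-1187, 200 ng/mL) preincubated 15 min with compound, then reacted 1 h at room temperature with 100 nM GFP-STAT1 and 1 mM ATP. pTyr701 detected by TR-FRET (terbium antibody); IC50 from 10-dose sigmoid fits.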
Background: TR-FRET usually uses a lanthanide donor and a delayed reading to cut background.

Series [2] deals with human Janus kinase 3 (JAK3), recombinant catalytic domain. The series is described as follows: LanthaScreen TR-FRET enzymatic assay, JAK3. The following applies: ratio of IC50 against JAK3 over IC50 against JAK1. The series is classed as biochemical. Summed up: as §1
Series [3] deals with human Janus kinase 3 (JAK3), recombinant catalytic domain (Homo sapiens (Human), UniProt P52333). Kind of series: LanthaScreen TR-FRET enzymatic assay, JAK3. The series is classed as biochemical. Particulars: TR-FRET, 1 mM ATP, GFP-STAT1 substrate; read-out: Inhibitory Activity IC50 JAK3. Summed up:
as §1

The test system of series [4] is human tyrosine kinase 2 (TYK2), recombinant catalytic domain. The series is described as follows: LanthaScreen TR-FRET enzymatic assay, TYK2. The class given is biochemical. The following applies: ratio of IC50 against TYK2 over IC50 against JAK1. The essentials: as §1
The target of series [5] is human tyrosine kinase 2 (TYK2), recombinant catalytic domain (Homo sapiens (Human), UniProt P29597). The series is described as follows: LanthaScreen TR-FRET enzymatic assay, TYK2. The class given is biochemical. Particulars: TR-FRET, 1 mM ATP, GFP-STAT1 substrate; read-out: Inhibitory Activity IC50 TYK2. Summed up: as §1
Series [6] in a line: Pharmacokinetics in Sprague-Dawley rats (HPLC-MS/MS of plasma). The class given is in vivo. The following applies: rat. Here is the method: The PK parameters of compound 14 were determined in Sprague-Dawley rats (Hubei Provincial Laboratory Animal Research Center) after a single oral (p.o) and intravenous (i.v.) administration using HPLC-MS/MS (Shimadzu LC-20ACXR HPLC coupled with AB Sciex API 4500 Qtrap).
A sensitive and specific HPLC-MS/MS method was developed for the determination of the compound in rat plasma. Multiple reaction monitoring (MRM) mode was used for the quantification of the compound by monitoring the ion transitions at m/z from 443.1 to 375.1. Compound 2 was used as an internal standard and monitored by the ion transition at m/z from 427.1 to 357.1. Calibration curves were constructed in the range of 1.00-1000 ng/mL in rat plasma extract by a 1/×2 weighted quadratic regression. The regression coefficients obtained were greater than 0.99 and back calculated values comprised in the range of ±15% from their nominal concentration.
For the intravenous administration, the compound was dissolved in 25% PEG200 in saline and intravenously administrated at a single dose of 1.00 mg/kg. For the oral administration, the compound was suspended in 0.5% sodium carboxymethylcellulose (CMC-Na) solution and intragastrically administrated at a single dose of 5.00 mg/kg. Approximately 0.200 mL of blood sample were collected from orbital venous plexus at 0 (predose), 0.25, 0.5, 1, 2, 4, 8, 12 and 24 hrs post dosing. All samples were placed into EDTA-K2-treated tubes and centrifuged at 3,500 rpm at 4° C. for 10 min to separate the plasma fractions. The plasma samples were stored at −20° C. prior to analysis. The plasma samples were analyzed with the HPLC-MS/MS method.

Setting [7] is: Sprague-Dawley, plasma, IV, single dose 1.00 mg/kg.
Where [8] appears, read: Sprague-Dawley, plasma, PO, single dose 5.00 mg/kg.

Consider 1 compound from patent US10730875B2, “Substituted imidazo[1,2-A]pyridin-2-ylamine compounds, and pharmaceutical compositions and methods of use thereof” (JN Therapeutics, priority 2015, dated 2020).

SMILES strings stand for the structures.

Chain of human Janus kinase 2 (JAK2), recombinant catalytic domain (O60674 808-1132): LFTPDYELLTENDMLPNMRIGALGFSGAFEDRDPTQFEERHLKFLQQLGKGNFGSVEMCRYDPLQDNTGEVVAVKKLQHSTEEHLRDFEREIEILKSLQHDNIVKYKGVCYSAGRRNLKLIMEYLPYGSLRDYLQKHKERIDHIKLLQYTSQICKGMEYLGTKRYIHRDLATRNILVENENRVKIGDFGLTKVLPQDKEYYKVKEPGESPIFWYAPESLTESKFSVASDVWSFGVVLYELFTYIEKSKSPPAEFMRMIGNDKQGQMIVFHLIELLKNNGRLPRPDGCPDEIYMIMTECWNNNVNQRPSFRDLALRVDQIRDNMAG
Chain of human Janus kinase 3 (JAK3), recombinant catalytic domain (Homo sapiens (Human), UniProt P52333) (P52333 781-1124): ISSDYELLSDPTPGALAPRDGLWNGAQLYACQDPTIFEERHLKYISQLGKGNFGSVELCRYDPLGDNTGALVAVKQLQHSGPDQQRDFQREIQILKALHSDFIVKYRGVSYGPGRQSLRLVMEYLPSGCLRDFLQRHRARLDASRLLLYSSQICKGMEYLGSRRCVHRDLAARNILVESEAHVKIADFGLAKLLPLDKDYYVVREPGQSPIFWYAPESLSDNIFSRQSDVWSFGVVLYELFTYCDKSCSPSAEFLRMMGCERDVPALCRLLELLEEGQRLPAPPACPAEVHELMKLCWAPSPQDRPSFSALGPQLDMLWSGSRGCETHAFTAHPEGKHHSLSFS
Chain of human tyrosine kinase 2 (TYK2), recombinant catalytic domain (Homo sapiens (Human), UniProt P29597) (P29597 833-1187): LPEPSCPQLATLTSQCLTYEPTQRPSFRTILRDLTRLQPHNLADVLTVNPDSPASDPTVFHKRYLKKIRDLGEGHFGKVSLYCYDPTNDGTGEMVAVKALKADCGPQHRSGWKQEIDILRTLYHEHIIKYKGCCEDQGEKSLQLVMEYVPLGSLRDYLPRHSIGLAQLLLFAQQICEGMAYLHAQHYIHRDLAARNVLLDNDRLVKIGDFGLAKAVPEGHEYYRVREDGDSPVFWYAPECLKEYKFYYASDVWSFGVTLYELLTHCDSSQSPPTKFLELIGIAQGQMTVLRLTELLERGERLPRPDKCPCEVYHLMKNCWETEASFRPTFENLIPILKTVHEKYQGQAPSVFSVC

As usually defined, the IC50 is the concentration needed to halve the response being measured. In general, AUC(0-t) refers to the area under the concentration-time curve up to a stated or last time point. Low readings indicate low exposure, high ones high exposure. Usually MRT stands for a mean duration of stay, worked out from the concentration-time curve. The clearance is a measure of how efficiently the substance is removed, as volume per time. High values mean a high capacity for elimination, low ones a low capacity for elimination. Broadly, the half-life is the time in which the quantity being followed falls by half. The low end stands for rapid decline, the high end for slow decline. By Cmax is commonly meant the peak of the concentration-time curve. Broadly, the Tmax is the time from dosing to the highest level. `O=C(Nc1cn2c(-c3ccc(CN4CCS(=O)(=O)CC4)cc3F)cccc2n1)C1CC1` [Compound 14]: in series [1] (TR-FRET, 1 mM ATP, GFP-STAT1 substrate, read-out: Inhibitory Activity IC50 JAK2), the IC50 was in the range of 1 to 5 µM. Moreover, the “Selectivity JAK2/JAK1” value in series [1] (ratio of IC50 against JAK2 over IC50 against JAK1) is recorded as “A′ (A′ represents a ratio of greater than 8)”. The “Selectivity JAK3/JAK1” value in series [2] is given as “A′ (A′ represents a ratio of greater than 8)”. Also, the IC50 in series [3] is more than 5 µM. The “Selectivity TYK2/JAK1” value in series [4] was “A′ (A′ represents a ratio of greater than 8)”. The IC50 in series [5] was in the range of 1 to 5 µM. The compound also returned a F in series [6] (PO, single dose 5.00 mg/kg) of 46.7 ± 7.3%. In series [6] (setting [7]), this compound gave an AUC(0-t) of 677 ± 122 ng·h/mL, an MRT of 1.4 ± 0.2 h, a clearance of 24.8 mL/min/kg and a half-life of 1.4 ± 0.3 h. Further, the Vd in series [6] (Sprague-Dawley, plasma, IV, single dose 1.00 mg/kg, read-out: Vz) amounted to 2.98 ± 0.912 L/kg. In series [6] (setting [8]), the AUC(0-t) worked out at 1590 ± 253 ng·h/mL, the highest level (Cmax) was 571 ± 190 ng/mL, the MRT was 2.3 ± 0.4 h and the Tmax was found to be 0.63 ± 0.25 h. The half-life in series [6] (setting [8]) was 1.9 ± 0.3 h.
